According to patent publication US20140315972A1, “RS)-2-(2-oxo-4-phenylpyrrolidin-1-yl)acetamide compound having modulatory activity with a commensurate effect, pharmaceutical substance (variants) and its application, composition (variants) thereof” (priority 2011, published 2014):
Marks after values point to notes of the source that are not given here.

Experiments:
mice [1] = test: Apomorphine verticalization (positive symptoms of schizophrenia); assay type: in vivo; settings: for Intensity of verticalization in points: mice, apomorphine 2 mg/kg s.c.
Procedure: Studies have been conducted on white outbred male mice (18-24 g), in comparison with the olanzapine (Zyprexa) with intraperitoneal injection.
In the model of positive symptoms of schizophrenia associated with hyperactivation of the dopamine systems, which allows to identify the ability of substances to block the dopaminergic transmission in the mesolimbic system of the brain, Phenotropil (100, 200, and 300 mg/kg) reduced the apomorphine-induced (2 mg/kg subcutaneously) verticalization intensity scores (Table 4) by 45%, by 2.0 and 2.6 times, respectively.

rats [2] = test: 14-day immobilization in antiorthostatic position (Ds), thymus, spleen, adrenal mass ratios Kt; assay type: in vivo; settings: Ds-conditions; for S/A: spleen/adrenals ratio (mg/100 g baseline body weight); for S/T: spleen/thymus ratio (mg/100 g baseline body weight); for T/A: thymus/adrenals ratio (mg/100 g baseline body weight)
[3] = system: GABAA benzodiazepine (BDZ) receptors (cortex); test: Receptor binding ex vivo on rat brain membrane preparations; settings: 100 mg/kg single dose during scopolamine amnesia
Procedure: (§1) Studying the mechanisms of action of the preventive and curative effect of Phenotropil (100 mg/kg) with single and subchronic administration (for 7 days) in terms of receptor binding to dopamine (D1, D2, D3 in the striatum), serotonin (5-HT2—frontal cortex) glutamate (NMDA in the hippocampus), the GABAA benzodiazepine (BDZ—cortex) and acetylcholine (nACh—cortex) receptors was performed on membrane preparations isolated from various competent rat brain structures. The methods are well known and described. Baseline studies in normal state and during the anticholinergic scopolamine induced CRPA amnesia served as the comparison groups (Table 7.4 and 7.5).

[4] = system: serotonin 5-HT2 receptors (frontal cortex); test: as above
Procedure: as §1

mice [5] = test: Hypobaric hypoxia in pressure chamber, adult mice; assay type: in vivo; settings: for Duration of life: adult mice, hypobaric hypoxia
HSP70 = HSP70 expression in the myocardium (Western blot); assay type: in vivo, rats; settings: for increase of NSP70 level in the myocardium vs Ns control: negative stress state; for increase of NSP70 content in the heart vs untreated control: no stress; for HSP 70 in myocardium: Wistar rats
Source text: Determination of NSP70 (ng/mg of total protein) was studied in myocardial preparations by Western blot analysis; the results are presented in Table 14.1.

rats [6] = test: Retrograde amnesia of CRPA induced by electroshock and scopolamine, adult rats; assay type: in vivo
Source text: Phenotropil has a pronounced mnemotropic and nootropic activity. The results of the study of the antiamnestic activity (classical technique in the equipment manufactured by Lafayette Instrument Co, USA) in the retrograde amnesia of the passive avoidance conditional reflex (CRPA) induced by maximal electroshock (MES) and scopolamine in male rats (180-250 g) are shown in Table 7. […] Taking into account the studies using the open field and cross maze tests, the nootropic action component of the modulatory drug not only may be more pronounced, but is broader in manifestation depending on the type of disorder or in unfamiliar situational conditions. The pronounced nootropic activity of Phenotropil (100, 200, 300 mg/kg) also manifests in rat pups of both sexes 30-35 days of age (Table 7.1) after scopolamine-induced CRPA amnesia.

mice [7] = test: Benzedrine-induced stimulation of orientation-locomotor activity; assay type: in vivo
Source text: In regard to influencing the effects of Benzedrine, Phenotropil also can provide, depending on the dose, the diametrically opposite activity when in combination with psychostimulants. This fact must be taken into account in combined use of various pharmacological agents.

rats [8] = test: Hypoxia with hypercapnia in 7-day-old rats; assay type: in vivo
rats [9] = test: Hypobaric hypoxia in 7-day-old rats; assay type: in vivo
cAMP = cAMP level in blood plasma of mice; assay type: in vivo; settings: for increase of cAMP level: mice, 60 minutes before test; for cAMP level: mouse blood plasma, one hour after a single injection
[10] = 5-HT2 frontal cortex, 100 mg/kg single dose during scopolamine amnesia
[11] = mice, Benzedrine 3 mg/kg + Phenotropil 50.0 mg/kg
[12] = mice, Benzedrine 3 mg/kg + Phenotropil 100.0 mg/kg
[13] = mice, Benzedrine 3 mg/kg + Phenotropil 300.0 mg/kg
[14] = mice, doses of 50 and 100 mg/kg (so in the source)

Compound: NC(=O)CN1CC(c2ccccc2)CC1=O (racemic) [Compound 1, (RS)-2-(2-oxo-4-phenylpyrrolidine-1-yl)acetamide]
- reduction of verticalization intensity (mice [1]; 1 mg/kg): 26%
- reduction of verticalization intensity (mice [1]; 10 mg/kg): 66.5%
- reduction of verticalization intensity (mice [1]; 100 mg/kg): 45%
- reduction of verticalization intensity (mice [1]; 200 mg/kg): 2.0 times
- reduction of verticalization intensity (mice [1]; 300 mg/kg): 2.6 times
- Intensity of verticalization in points (mice [1]; 100 mg/kg i.p.): 27 ± 8.7 points
- Intensity of verticalization in points (mice [1]; 200 mg/kg i.p.): 25 ± 5.1 points
- Intensity of verticalization in points (mice [1]; 300 mg/kg i.p.): 19 ± 5.1 points
- S/A (rats [2]; 25 mg/kg): 7.6 ± 1.2
- S/T (rats [2]; 25 mg/kg): 2.2 ± 0.1
- T/A (rats [2]; 25 mg/kg): 5.5 ± 1.1
- S/A (rats [2]; 50 mg/kg): 8.2 ± 1.2
- S/T (rats [2]; 50 mg/kg): 1.6 ± 0.1
- T/A (rats [2]; 50 mg/kg): 6.6 ± 1.1
- S/A (rats [2]; 100 mg/kg): 8.8 ± 1.2
- S/T (rats [2]; 100 mg/kg): 1.2 ± 0.2
- T/A (rats [2]; 100 mg/kg): 5.5 ± 1.1
- Bmax change vs saline CRPA control [3]: +4%
- Kd change vs saline CRPA control [3]: −3.8%
- Kd change vs scopolamine amnesia group [3]: +9.3%
- Bmax, percentage relative to control ([4]; 5-HT2, subchronic 100 mg/kg/day, no pathology): −18%*
- Bmax change vs saline CRPA control [4, 10]: +31%
- Kd change vs saline CRPA control [4, 10]: +19.4%
- Kd change vs scopolamine amnesia group [4, 10]: +3.0%
- decrease of density (Bmax) of 5-HT2 receptors vs control ([4]; subchronic 100 mg/kg, no pathology): 18%
- increase of survival time vs control (mice [5]; 50 mg/kg): 65.0%
- increase of survival time vs control (mice [5]; 100 mg/kg): 147.8%
- increase of survival time vs control (mice [5]; 300 mg/kg): 591.0%
- Duration of life (mice [5]; 50 mg/kg): 3.8 ± 0.5 min
- Duration of life (mice [5]; 100 mg/kg): 5.7 ± 1.2 min
- Duration of life (mice [5]; 300 mg/kg): 15.9 ± 0.4 min
- increase of NSP70 level in the myocardium vs Ns control (HSP70; 25 mg/kg): 38%
- increase of NSP70 content in the heart vs untreated control (HSP70; 25 mg/kg): 65%
- increase of NSP70 level in the myocardium vs Ns control (HSP70; 50 mg/kg): 41.4%
- increase of NSP70 content in the heart vs untreated control (HSP70; 50 mg/kg): 82%
- increase of NSP70 level in the myocardium vs Ns control (HSP70; 100 mg/kg): 62%
- increase of NSP70 content in the heart vs untreated control (HSP70; 100 mg/kg): 73%
- increase of NSP70 level in the myocardium vs Ns control (HSP70; 300 mg/kg): 89.7%
- increase of NSP70 content in the heart vs untreated control (HSP70; 300 mg/kg): 273%
- HSP 70 in myocardium (HSP70; 25 mg/kg i.p., normal conditions): 0.18 ± 0.011 ng/mg total protein
- HSP 70 in myocardium (HSP70; 50 mg/kg i.p., normal conditions): 0.20 ± 0.014 ng/mg total protein
- HSP 70 in myocardium (HSP70; 100 mg/kg i.p., normal conditions): 0.19 ± 0.008 ng/mg total protein
- HSP 70 in myocardium (HSP70; 300 mg/kg i.p., normal conditions): 0.41 ± 0.016 ng/mg total protein
- HSP 70 in myocardium (HSP70; Ns + 25 mg/kg i.p.): 0.40 ± 0.02 ng/mg total protein
- HSP 70 in myocardium (HSP70; Ns + 50 mg/kg i.p.): 0.41 ± 0.03 ng/mg total protein
- HSP 70 in myocardium (HSP70; Ns + 100 mg/kg i.p.): 0.47 ± 0.02 ng/mg total protein
- HSP 70 in myocardium (HSP70; Ns + 300 mg/kg i.p.): 0.55 ± 0.03 ng/mg total protein
- Latent period of the first entry into the chamber at testing the preservation of CRPA, after 24 hours (rats [6]; ECS amnesia, 25 mg/kg): 65.6* seconds
- Latent period of the first entry into the chamber at testing the preservation of CRPA, after 24 hours (rats [6]; ECS amnesia, 50 mg/kg): 74.4* seconds
- Latent period of the first entry into the chamber at testing the preservation of CRPA, after 24 hours (rats [6]; ECS amnesia, 100 mg/kg): 112.5* seconds
- Latent period of the first entry into the chamber at testing the preservation of CRPA, after 24 hours (rats [6]; scopolamine 1 mg/kg amnesia, 25 mg/kg): 78.8* seconds
- Latent period of the first entry into the chamber at testing the preservation of CRPA, after 24 hours (rats [6]; scopolamine 1 mg/kg amnesia, 50 mg/kg): 96.0* seconds
- Latent period of the first entry into the chamber at testing the preservation of CRPA, after 24 hours (rats [6]; scopolamine 1 mg/kg amnesia, 100 mg/kg): 125.3* seconds
- Number of pulses for 3 min. (mice [7]; [11]): 126.0 ± 12.4
- Number of stand-ups for 3 min. (mice [7]; [11]): 15.9 ± 2.0
- Number of pulses for 3 min. (mice [7]; [12]): 129.2 ± 14.2
- Number of stand-ups for 3 min. (mice [7]; [12]): 24.2 ± 4.8
- Number of pulses for 3 min. (mice [7]; [13]): 48.1 ± 9.4
- Number of stand-ups for 3 min. (mice [7]; [13]): 12.1 ± 4.6
- increase of orientation and exploratory behavior, horizontal component, vs control (mice [7]; [14]): 240.0%
- increase of orientation and exploratory behavior, vertical component, vs control (mice [7]; [14]): 89.0%
- reduction of psychostimulant effect of Benzedrine, horizontal component (mice [7]; single 300 mg/kg): ~42.9%
- reduction of psychostimulant effect of Benzedrine, vertical component (mice [7]; single 300 mg/kg): 14.8%
- Duration of life of animals (rats [8]; 50 mg/kg): 83.3 ± 7.9 min
- Duration of life of animals (rats [8]; 100 mg/kg): 123.2 ± 2.9 min
- altitude at which tremor was displayed (rats [9]; 300 mg/kg): 11 thousand meters
- altitude at which tremor was observed (rats [9]; 50 and 100 mg/kg (control 7,000 m)): 10,000 m
- Duration of life of animals (rats [9]; ascension to 11000 m, 50 mg/kg): 6.9 ± 0.7 min
- Duration of life of animals (rats [9]; ascension to 11000 m, 100 mg/kg): 6.9 ± 0.7 min
- Duration of life of animals (rats [9]; ascension to 12000 m, 300 mg/kg): 7.3 ± 0.7 min
- tremor during stay at 11,000 meters for 2 hours (rats [9]; control 11 episodes): tremor was observed only once
- increase of cAMP level (cAMP; single i.p. 10 mg/kg): 21%
- increase of cAMP level (cAMP; single i.p. 50 mg/kg): 65.5%
- increase of cAMP level (cAMP; single i.p. 100 mg/kg): 96.3%
- cAMP level (cAMP; 10 mg/kg): 4.56 ± 0.67 pikomol/50 μl plasma
- cAMP level (cAMP; 50 mg/kg): 6.24 ± 0.81 pikomol/50 μl plasma
- cAMP level (cAMP; 100 mg/kg): 7.40 ± 0.62 pikomol/50 μl plasma
